Measured values from patent publication US11976083B2, “Inhibitors of peptidylarginine deiminases” (Gilead Sciences, Inc., priority 2020, dated 2024).

Molecular target: T1, human PAD4 (Homo sapiens, UniProt Q9UM07)
T1 construct: human PAD4 (NM_012387), A2-P663, was PCR amplified; His-SUMO (N, cleaved yes); made in house; host or cells: E. coli BL21(DE3)
Experiment: In vitro PAD4 BAEE biochemical assay
Details: BAEE substrate 3 mM, 5 nM PAD4, 2 mM calcium chloride; geometric mean of multiple experiments
How it was run: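 Recombinant human PAD4 (5 nM final) with 2 mM CaCl2 was preincubated with compound 30 min at 25 °C in MOPS buffer pH 7.6, then reacted with 3 mM BAEE for 2 h at 25 °C. After EDTA stop, released ammonia was detected by o-phthalaldehyde/DTT fluorescence (ex 405/em 535 nm); IC50 from four-parameter fit, geometric mean.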

T1 sequence (Q9UM07 2-663): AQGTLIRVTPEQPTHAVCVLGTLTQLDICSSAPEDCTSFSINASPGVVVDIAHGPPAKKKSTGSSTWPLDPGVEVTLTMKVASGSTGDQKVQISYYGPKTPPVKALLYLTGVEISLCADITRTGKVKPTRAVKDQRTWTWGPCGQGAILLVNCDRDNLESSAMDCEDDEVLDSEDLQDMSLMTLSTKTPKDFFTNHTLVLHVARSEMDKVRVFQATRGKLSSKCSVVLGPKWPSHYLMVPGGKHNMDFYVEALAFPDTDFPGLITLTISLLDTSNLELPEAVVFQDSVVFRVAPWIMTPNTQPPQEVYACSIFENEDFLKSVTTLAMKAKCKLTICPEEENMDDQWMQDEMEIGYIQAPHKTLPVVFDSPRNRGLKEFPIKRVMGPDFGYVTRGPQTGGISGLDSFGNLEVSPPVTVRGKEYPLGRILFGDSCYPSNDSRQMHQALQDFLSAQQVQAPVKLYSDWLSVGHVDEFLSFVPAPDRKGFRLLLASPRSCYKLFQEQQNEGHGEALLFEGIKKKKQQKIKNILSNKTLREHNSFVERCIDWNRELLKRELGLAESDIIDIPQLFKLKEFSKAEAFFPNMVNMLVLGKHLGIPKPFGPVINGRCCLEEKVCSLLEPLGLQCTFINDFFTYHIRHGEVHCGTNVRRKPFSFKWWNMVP

Row | SMILES | IC50 [nM]
1 | COc1cc(C(=O)N2C[C@H](N)[C@@H]3CC[C@H]2C3)cc2nc(-c3cc4ccc5nc4n3CCCCCC[C@@](F)(c3cccc(Cl)n3)C(=O)N[C@@H]5C)n(C)c12 [Example 887, (8~{R},11~{R})-17-[5-[(1~{S),4~{R},5~{R})-4-amino-2-azabicyclo[3.2.1]octane-2-carbonyl]-7-methoxy-1-methyl-benzimidazol-2-yl]-8-(6-chloro-2-pyridyl)-8-fluoro-11-methyl-1,10,19-triazatricyclo[10.5.2.0^ {15,18}]nonadeca-12(19),13,15(18), 16-tetraen-9-one] | 52
2 | COc1cc(C(=O)N2C[C@H](N)[C@@H]3CC[C@H]2C3)cc2nc(-c3cc4ccc5nc4n3CCCCCC[C@](c3ccccn3)(C(F)F)C(=O)N[C@@H]5C)n(C)c12 [Example 889, (8~{R},11~{R})-17-[5-[(1~{S},4~{R},5~{R})-4-amino-2-azabicyclo[3.2.1]octane-2-carbonyl]-7-methoxy-1-methyl-benzimidazol-2-yl]-8-(difluoromethyl)-11-methyl-8-(2-pyridyl)-1,10,19-triazatricyclo [10.5.2.0^{15,18}]nonadeca-12(19),13,15(18),16-tetraen-9-one] | 54
3 | COc1cc(C(=O)N2C[C@H](N)[C@@H]3CC[C@H]2C3)cc2nc(-c3cc4ccc5nc4n3CCCCCC[C@@](c3ccccn3)(C(F)F)C(=O)N[C@@H]5C)n(C)c12 [Example 890, (8~{S},11~{R})-17-[5-[(1~{S},4~{R},5~{R})-4-amino-2-azabicyclo[3.2.1]octane-2-carbonyl]-7-methoxy-1-methyl-benzimidazol-2-yl]-8-(difluoromethyl)-11-methyl-8-(2-pyridyl)-1,10,19-triazatricyclo [10.5.2.0^{15,18}]nonadeca-12(19),13,15(18), 16-tetraen-9-one] | 10
4 | COc1cc(C(=O)N2C[C@H](N)[C@@H]3CC[C@H]2C3)cc2nc(-c3cc4ccc5nc4n3CCCCCC[C@H](c3ccccn3)C(=O)N[C@@H]5C)n(C)c12 [Example 892, (8~{R},11~{R})-17-[5-[(1~{S},4~{R},5~{R})-4-amino-2-azabicyclo[3.2.1]octane-2-carbonyl]-7-methoxy-1-methyl-benzimidazol-2-yl]-11-methyl-8-(2-pyridyl)-1,10,19-triazatricyclo[10.5.2.0^{15,18}] nonadeca-12(19), 13,15(18),16-tetraen-9-one] | 27
5 | COc1cc(C(=O)N2C[C@H](N)[C@@H]3CC[C@H]2C3)cc2nc(-c3cc4ccc5nc4n3CCC[C@H]3C[C@@H]3c3ccccc3C(=O)N[C@@H]5C)n(C)c12 [Example 893] | 28
6 | COc1cc(C(=O)N2C[C@H](N)[C@@H]3CC[C@H]2C3)cc2nc(-c3cc4ccc5nc4n3CCCCCc3cc(C(F)F)ccc3C(=O)N[C@@H]5C)n(C)c12 [Example 896, (2~{R})-17-[5-[(1~{S),4~{R},5~ {R})-4-amino-2-azabicyclo [3.2.1]octane-2-carbonyl]-7-methoxy-1-methyl-benzimidazol-2-yl]-8-(difluoromethyl)-2-methyl-3,16,22-triazatetracyclo [14.5.2.0^{5,10}.0^{19,23}] tricosa-1(22),5(10),6,8,17,19(23), 20-heptaen-4-one] | 56
7 | COc1cc(C(=O)N2C[C@H](N)[C@@H]3CC[C@H]2C3)cc2nc(-c3cc4ccc5nc4n3CCCCCc3cc(F)ccc3C(=O)N[C@@H]5C)n(C)c12 [Example 900, (2~{R})-17-[5-[(1~{S),4~{R}, 5~{R})-4-amino-2-azabicyclo [3.2.1]octane-2-carbonyl]-7-methoxy-1-methyl-benzimidazol-2-yl]-8-fluoro-2-methyl-3,16,22-triazatetracyclo[14.5.2.0^ {5,10}.0^{19,23}]tricosa-1(22),5(10),6,8,17,19(23),20-heptaen-4-one] | 28
8 | COc1cc(C(=O)N2C[C@H](N)[C@@H]3CC[C@H]2C3)cc2nc(-c3cc4ccc5nc4n3CCCCCc3cc(Cl)ccc3C(=O)N[C@@H]5C)n(C)c12 [Example 901, (2~{R})-17-[5-[(1~{S),4~{R}, 5~{R})-4-amino-2-azabicyclo [3.2.1]octane-2-carbonyl]-7-methoxy-1-methyl-benzimidazol-2-yl]-8-chloro-2-methyl-3,16,22-triazatetracyclo [14.5.2.0^{5,10}.0^{19,23}] tricosa-1(22),5(10),6,8,17, 19(23),20-heptaen-4-one] | 59
9 | COc1cc(C(=O)N2C[C@H](N)[C@@H]3CC[C@H]2C3)cc2nc(-c3cc4ccc5nc4n3CCCCCc3cccc(F)c3C(=O)N[C@@H]5C)n(C)c12 [Example 902, (2~{R})-17-[5-[(1~{S),4~{R}, 5~{R})-4-amino-2-azabicyclo [3.2.1]octane-2-carbonyl]-7-methoxy-1-methyl-benzimidazol-2-yl]-6-fluoro-2-methyl-3,16,22-triazatetracyclo [14.5.2.0^{5,10}.0^{19,23}] tricosa-1(22),5(10),6,8,17, 19(23),20-heptaen-4-one] | 48
10 | COc1cc(C(=O)N2C[C@H](N)[C@@H]3CC[C@H]2C3)cc2nc(-c3cc4ccc5nc4n3CCCCCc3c(F)ccc(F)c3C(=O)N[C@@H]5C)n(C)c12 [Example 903, (2~{R})-17-[5-[(1~{S},4~{R}, 5~{R})-4-amino-2-azabicyclo [3.2.1]octane-2-carbonyl]-7-methoxy-1-methyl-benzimidazol-2-yl]-6,9-difluoro-2-methyl-3,16,22-triazatetracyclo [14.5.2.0^{5,10}.0^{19,23}] tricosa-1(22),5(10),6,8,17, 19(23),20-heptaen-4-one] | 55

Now from value to compound:

Row | IC50 [nM] | SMILES
11 | 37 | COc1cc(C(=O)N2C[C@H](N)[C@@H]3CC[C@H]2C3)cc2nc(-c3cc4ccc5nc4n3CCCCCC[C@](F)(c3cccc(Cl)n3)C(=O)N[C@@H]5C)n(C)c12 [Example 888, (8~{S},11~{R})-17-[5-[(1~{S},4~{R},5~{R})-4-amino-2-azabicyclo[3.2.1]octane-2-carbonyl]-7-methoxy-1-methyl-benzimidazol-2-yl]-8-(6-chloro-2-pyridyl)-8-fluoro-11-methyl-1,10,19-triazatricyclo[10.5.2.0^ {15,18}]nonadeca-12(19), 13,15(18),16-tetraen-9-one]
12 | 13 | COc1cc(C(=O)N2C[C@H](N)[C@@H]3CC[C@H]2C3)cc2nc(-c3cc4ccc5nc4n3CCCCCC[C@@H](c3ccccn3)C(=O)N[C@@H]5C)n(C)c12 [Example 891, (8~{S),11~{R})-17-[5-[(1~{S},4~{R},5~{R})-4-amino-2-azabicyclo[3.2.1]octane-2-carbonyl]-7-methoxy-1-methyl-benzimidazol-2-yl]-11-methyl-8-(2-pyridyl)-1,10,19-triazatricyclo[10.5.2.0^ {15,18}]nonadeca-12(19), 13,15(18),16-tetraen-9-one]
13 | 72 | COc1cc(C(=O)N2C[C@H](N)[C@@H]3CC[C@H]2C3)cc2nc(-c3cc4ccc5nc4n3CCCCCc3c(F)cc(F)cc3C(=O)N[C@@H]5C)n(C)c12 [Example 894, (2~{R})-17-[5-[(1~{S},4~ {R},5~{R})-4-amino-2-azabicyclo[3.2.1]octane-2-carbonyl]-7-methoxy-1-methyl-benzimidazol-2-yl]-7,9-difluoro-2-methyl-3,16,22-triazatetracyclo [14.5.2.0^{5,10).0^{19,23}] tricosa-1(22),5(10),6,8,17, 19(23),20-heptaen-4-one]
14 | 34 | C[C@H]1NC(=O)c2ccc(Cl)nc2CCCCCn2c(-c3nc4cc(C(=O)N5C[C@H](N)[C@@H]6CC[C@H]5C6)cc(F)c4n3C3CC3)cc3cc(F)c1nc32 [Example 895, (2~{R})-17-[5-[(1~{S},4~{R}, 5~{R})-4-amino-2-azabicyclo [3.2.1]octane-2-carbonyl]-1-cyclopropyl-7-fluoro-benzimidazol-2-yl]-8-chloro-21-fluoro-2-methyl-3,9,16,22-tetrazatetracyclo[14.5.2.0^ {5,10).0^{19,23}]tricosa-1(22),5(10),6,8,17,19(23),20-heptaen-4-one]
15 | 40 | COc1cc(C(=O)N2C[C@H](N)[C@@H]3CC[C@H]2C3)cc2nc(-c3cc4ccc5nc4n3CCCCCc3ccc(F)c(F)c3C(=O)N[C@@H]5C)n(C)c12 [Example 897, (2~{R})-17-[5-[(1~{S),4~{R}, 5~{R})-4-amino-2-azabicyclo [3.2.1]octane-2-carbonyl]-7-methoxy-1-methyl-benzimidazol-2-yl]-6,7-difluoro-2-methyl-3,16,22-triazatetracyclo [14.5.2.0^{5,10}.0^{19,23}] tricosa-1(22),5(10),6,8,17, 19(23),20-heptaen-4-one]
16 | 156 | COc1cc(C(=O)N2C[C@H](N)[C@@H]3CC[C@H]2C3)cc2nc(-c3cc4ccc5nc4n3CCCCCc3c(ccc(Cl)c3F)C(=O)N[C@@H]5C)n(C)c12 [Example 898, (2~{R})-17-[5-[(1~{S},4~{R},5~ {R})-4-amino-2-azabicyclo [3.2.1]octane-2-carbonyl]-7-methoxy-1-methyl-benzimidazol-2-yl]-8-chloro-9-fluoro-2-methyl-3,16,22-triazatetracyclo[14.5.2.0^ {5,10}.0^{19,23}]tricosa-1(22),5(10),6,8,17,19(23),20-heptaen-4-one]
17 | 30 | COc1cc(C(=O)N2C[C@H](N)[C@@H]3CC[C@H]2C3)cc2nc(-c3cc4ccc5nc4n3CCCCCc3ccc(F)cc3C(=O)N[C@@H]5C)n(C)c12 [Example 899, (2~{R})-17-[5-[(1~{S},4~{R}, 5~{R})-4-amino-2-azabicyclo [3.2.1]octane-2-carbonyl]-7-methoxy-1-methyl-benzimidazol-2-yl]-7-fluoro-2-methyl-3,16,22-triazatetracyclo [14.5.2.0^{5,10}.0^{19,23}] tricosa-1(22),5(10),6,8,17, 19(23),20-heptaen-4-one]
